Reference: PubChem BioAssay (NCI)
Several values for one entry are separate records, joined by “and”; a condition that tells them apart may be missing. Identical values can stand only once.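 Assay format: 96-well plates, 48-hour exposure. GI50 is the concentration that inhibits growth by half. TGI denotes the concentration required for complete inhibition of growth.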

Key:
Assay in all cases: growth of human tumour cells (NCI), 48 h
ACHN renal = test system: ACHN renal
K-562 leukemia = test system: K-562 leukemia
MALME-3M melanoma = test system: MALME-3M melanoma
NCI-H226 lung = test system: NCI-H226 lung
NCI-H460 lung = test system: NCI-H460 lung
T-47D breast = test system: T-47D breast
UO-31 renal = test system: UO-31 renal
BT-549 breast = test system: BT-549 breast
MOLT-4 leukemia = test system: MOLT-4 leukemia
UACC-257 melanoma = test system: UACC-257 melanoma

Row | SMILES | GI50 (ACHN renal) | TGI (ACHN renal) | GI50 (K-562 leukemia) | TGI (K-562 leukemia) | GI50 (MALME-3M melanoma) [µM] | TGI (MALME-3M melanoma) [µM] | GI50 (NCI-H226 lung) | TGI (NCI-H226 lung) | GI50 (NCI-H460 lung) | TGI (NCI-H460 lung) | GI50 (T-47D breast) | TGI (T-47D breast) | GI50 (UO-31 renal) | TGI (UO-31 renal) | GI50 (BT-549 breast) | TGI (BT-549 breast) | GI50 (MOLT-4 leukemia) | TGI (MOLT-4 leukemia) | GI50 (UACC-257 melanoma) | TGI (UACC-257 melanoma)
1 | C[C@]12CC[C@H](O)CC1=CC[C@@H]1[C@@H]2CC[C@]2(C)C(=O)/C(=C/c3cccc(OCCCn4ccnc4)c3)C[C@@H]12 | 16.7 µM | 38.6 µM | 16 µM | 58.1 µM | 23.9 | 59.1 | 21.4 µM | 50.2 µM | 19.6 µM | 43.2 µM | 12.4 µM | 31.3 µM | 16 µM | 35.1 µM |  |  |  |  |  | 
2 | COc1ccc(-c2cc3c4c(nc5ccccc5c4c2)CC(c2cc(OC)c(OC)c(OC)c2)O3)cc1 (stereo unspecified) | 1.58 µM | 3.11 µM | 3.37 µM | > 100 µM | 1.32 | 3.87 | 1.71 µM | 3.89 µM | 1.46 µM | 4.79 µM | 2.34 µM | 7.53 µM |  |  | 2.92 µM | 31.7 µM | > 100 µM | > 100 µM | 3.93 µM | > 100 µM
3 | O=c1/c(=C/c2cccc3ccccc23)sc2nc3ccccc3n12 |  | > 100 µM |  | > 100 µM |  | > 100 |  | > 100 µM |  | > 100 µM |  |  |  | > 100 µM |  |  |  |  |  | > 100 µM
4 | COc1ccc(CC(=O)c2cc(OC)c(OC)cc2C)cc1OC |  | > 100 µM |  | > 100 µM |  | > 100 |  |  |  | > 100 µM |  |  |  | > 100 µM |  |  |  | > 100 µM |  | 75.8 µM
5 | CCOC(=O)C1NCCc2c1[nH]c1ccccc21 (stereo unspecified) |  |  |  | > 10 µM |  | > 10 |  |  |  |  |  | > 10 µM |  |  |  | > 10 µM |  | > 10 µM |  | > 10 µM
6 | Nc1nc2ncn(CCO)c2c(=O)[nH]1 |  | > 100 µM |  |  |  | > 100 |  | > 100 µM |  | > 100 µM |  |  |  | > 100 µM |  |  |  | > 100 µM |  | > 100 µM
7 | CC1=CC[C@@H]2[C@@H](CC[C@@]2(C)O)C(C)(C)[C@H]1CC[C@@H]1[C@@]2(C)CCC(=O)C(C)(C)O[C@@H]2CC[C@]1(C)O |  | 42.4 µM |  |  |  |  |  | 63.5 µM |  | 35.8 µM |  | > 100 µM |  | 49 µM |  | 57.8 µM |  | 68.5 µM |  | > 100 µM
8 | CC(=O)O[C@]1(C(C)=O)CC[C@H]2[C@@H]3C[C@H](C)C4=CC(=O)C=C[C@]4(C)[C@@]3(F)[C@@H](O)C[C@@]21C |  | > 100 µM |  | > 100 µM |  | > 100 |  | > 100 µM |  | > 100 µM |  |  |  | 98.9 µM |  |  |  | > 100 µM |  | > 100 µM
9 | CCCCN(CC)C(=O)C(=O)C1C(=O)Nc2ccccc2S1=O (stereo unspecified) |  | > 100 µM |  | > 100 µM |  | > 100 |  | > 100 µM |  | > 100 µM |  |  |  | > 100 µM |  |  |  | > 100 µM |  | > 100 µM
10 | OCCN1CCN(CCCN2c3ccccc3Sc3ccc(C(F)(F)F)cc32)CC1 | 3.61 µM and 11.7 µM and 10.2 µM | 10.2 µM and 25.6 µM and 22.6 µM | 1.27 µM and 3.18 µM and 2.05 µM | 2.83 µM and 10.7 µM and 4.73 µM |  |  | 5.3 µM and 12.7 µM and 12.3 µM | 11.8 µM and 27.6 µM and 25.7 µM | 1.82 µM and 9.47 µM and 4.83 µM | 6.69 µM and 28.4 µM and 23.3 µM | 1.36 µM and 8.88 µM and 7.46 µM | 6.12 µM and 25.8 µM and 22.9 µM | 1.96 µM and 6.09 µM and 4.53 µM | 8.84 µM and 21.2 µM and 20 µM | 5.65 µM and 2.92 µM and 3.29 µM | 12.1 µM and 17.7 µM and 9.5 µM | 2.35 µM and 9.23 µM and 2.83 µM | 8.44 µM and 27 µM and 8.49 µM | 0.863 µM and 2.01 µM and 1.96 µM | 1.74 µM and 4.97 µM and 4.19 µM
11 | CS(=O)(=O)C1S(=O)(=O)OCCOS1(=O)=O |  | > 100 µM |  | > 100 µM |  | > 100 |  | > 100 µM |  | > 100 µM |  |  |  | > 100 µM |  |  |  | > 100 µM |  | > 100 µM
12 | COc1ccc(CNc2cc(OC)cc(OC)c2)cc1 |  | > 100 µM |  | > 100 µM |  | > 100 |  | > 100 µM |  | > 100 µM |  |  |  | > 100 µM and 97.8 µM |  |  |  | > 100 µM |  | > 100 µM
13 | OCC(O)CC[CH2][Sn]([c]1ccccc1)([c]1ccccc1)[c]1ccccc1 (stereo unspecified) | 8.89 µM | 21 µM | 8.59 µM | 23.8 µM |  |  | 19 µM | 70.8 µM | 15.4 µM | 31.6 µM |  |  | 14.8 µM | 28.4 µM |  |  |  |  | 18.4 µM | 35.8 µM
14 | CC1OCC2OC(C)OC(C3C4=C(CC(C)(C)CC4=O)OC4=C3C(=O)CC(C)(C)C4)C2O1 (stereo unspecified) |  | > 100 µM |  | > 100 µM |  | > 100 |  | > 100 µM |  | > 100 µM |  | > 100 µM |  | > 100 µM |  |  |  | > 100 µM |  | > 100 µM
15 | N#C/C(=C\c1ccc(CP(=O)(O)O)cc1)C(N)=O |  | > 100 µM |  | > 100 µM |  | > 100 |  | > 100 µM |  | > 100 µM |  |  |  | > 100 µM |  |  |  | > 100 µM |  | > 100 µM
16 | O=C1Nc2ccc(Cl)cc2/C1=C\c1c(-c2ccc(F)cc2)nc2ccccn12 | 3.25 µM | 11.4 µM |  |  | 3.8 | 14.8 | 2.07 µM | 5.21 µM | 2.35 µM | 5.89 µM | 4.35 µM | 19.6 µM | 2.1 µM | 5.61 µM | 2.46 µM | 6.72 µM | 2.89 µM | 8.13 µM | 3.11 µM | 16.3 µM
17 | Cc1oc2ccccc2c(=O)c1Cn1nnc2ccccc21 |  | > 100 µM |  | > 100 µM |  | > 100 |  | > 100 µM |  | > 100 µM |  | 44.2 µM |  | > 100 µM |  |  |  | > 100 µM |  | 66.9 µM
18 | O=C(O)CSc1n[nH]c(/C=C/c2ccccc2)n1 |  | > 100 µM |  | > 100 µM |  | > 100 |  | > 100 µM |  | > 100 µM |  |  |  | > 100 µM |  |  |  | > 100 µM |  | > 100 µM
19 | COc1cc2c(-c3nc4cc(Cl)c(F)cc4s3)cc(=O)oc2c(C)c1OC | 1.36 µM | 2.81 µM |  |  | 0.311 | 1.14 | 1.72 µM | 3.99 µM | 2.11 µM | 4.61 µM |  |  | 0.154 µM | 0.339 µM | 0.648 µM | 1.82 µM |  |  | 1.38 µM | 2.89 µM
20 | Cc1c(/C=C2\CC/C(=C\c3[nH]c(C(=O)OC(C)(C)C)c(C)c3C)C2=O)[nH]c(C(=O)OC(C)(C)C)c1C |  |  |  | > 100 µM |  | > 100 |  | > 100 µM |  | > 100 µM |  |  |  | > 100 µM |  |  |  | > 100 µM |  | > 100 µM
21 | COc1cc2c(cc1OC)C13CCN4CC5=CCOC(CC(=O)O)C(C5CC41)C3N2 (stereo unspecified) |  | > 100 µM |  | > 100 µM |  | > 100 |  | > 100 µM |  | > 100 µM |  |  |  | > 100 µM |  | > 100 µM |  | > 100 µM |  | > 100 µM
